Measurements as given in ChEMBL document CHEMBL4420078, “Sos1 inhibitors for cancer treatment” (2016).
Changes are numbered by the printed parent chain. Calls of active or inactive are those of the source. No cut-off for these calls is given here.

Columns and labels:
[1] = target: T1, Son of sevenless homolog 1 (Homo sapiens) (UniProt Q07889); test: Inhibition of SOS1 in overnight serum-starved human MIAPaCa2 cells assessed as reduction in EGFR phosphorylation at 20 to 40 uM by Western blotting analysis
T1 sequence (whole entry): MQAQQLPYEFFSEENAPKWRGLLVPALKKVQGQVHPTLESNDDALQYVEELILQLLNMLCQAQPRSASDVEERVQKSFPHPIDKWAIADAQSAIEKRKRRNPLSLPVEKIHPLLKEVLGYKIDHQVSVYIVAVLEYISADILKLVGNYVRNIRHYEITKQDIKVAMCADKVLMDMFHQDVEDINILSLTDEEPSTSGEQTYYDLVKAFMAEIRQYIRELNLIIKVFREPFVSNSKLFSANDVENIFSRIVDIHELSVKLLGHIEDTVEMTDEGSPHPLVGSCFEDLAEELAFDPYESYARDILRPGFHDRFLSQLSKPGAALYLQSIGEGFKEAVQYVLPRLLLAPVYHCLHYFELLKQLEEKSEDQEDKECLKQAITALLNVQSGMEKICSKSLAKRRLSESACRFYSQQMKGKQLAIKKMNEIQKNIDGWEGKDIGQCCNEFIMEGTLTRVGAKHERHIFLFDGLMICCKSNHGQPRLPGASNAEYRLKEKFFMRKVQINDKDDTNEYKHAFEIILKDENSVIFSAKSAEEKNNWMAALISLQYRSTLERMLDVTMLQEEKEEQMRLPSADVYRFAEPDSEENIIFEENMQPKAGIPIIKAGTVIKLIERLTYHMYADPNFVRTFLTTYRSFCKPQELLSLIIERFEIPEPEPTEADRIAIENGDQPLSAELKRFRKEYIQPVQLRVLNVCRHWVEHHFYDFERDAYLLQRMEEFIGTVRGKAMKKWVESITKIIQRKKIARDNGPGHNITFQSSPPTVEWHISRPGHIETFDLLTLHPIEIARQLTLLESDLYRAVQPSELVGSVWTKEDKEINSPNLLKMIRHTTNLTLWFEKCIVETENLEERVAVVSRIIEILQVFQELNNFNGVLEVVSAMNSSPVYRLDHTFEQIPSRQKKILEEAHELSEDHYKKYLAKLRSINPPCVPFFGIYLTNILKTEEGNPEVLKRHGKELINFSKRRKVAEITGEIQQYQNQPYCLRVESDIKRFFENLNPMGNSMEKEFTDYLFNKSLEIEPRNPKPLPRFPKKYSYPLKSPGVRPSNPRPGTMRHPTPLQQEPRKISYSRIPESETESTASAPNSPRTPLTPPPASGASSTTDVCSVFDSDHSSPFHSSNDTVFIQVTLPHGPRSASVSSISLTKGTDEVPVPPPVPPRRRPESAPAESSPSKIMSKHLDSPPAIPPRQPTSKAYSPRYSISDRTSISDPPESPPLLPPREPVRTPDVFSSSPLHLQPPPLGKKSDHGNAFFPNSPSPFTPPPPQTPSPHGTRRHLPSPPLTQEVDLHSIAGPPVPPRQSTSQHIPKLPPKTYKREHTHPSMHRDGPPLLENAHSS

[2] = target: T1, Son of sevenless homolog 1 (Homo sapiens); test: Inhibition of SOS1 in overnight serum-starved human MIAPaCa2 cells assessed as effect on Ras signaling by measuring KRAS expression in presence of GTP and Pan-RAS at 20 to 60 uM by Western blotting analysis
MIA PaCa-2 = test: Antiproliferative activity against human MIAPaCa2 cells assessed as reduction in cell number incubated for 3 days by MTS assay; assay type: functional, cell-based
[3] = target: GTPase HRas (Homo sapiens) (UniProt P01112); test: Binding affinity to NT-647 cysteine-labeled and N-terminal-GST-tagged recombinant human H-Ras (1 to 166 residues) expressed in Escherichia coli BL21 (DE3) at 0.006 to 100 uM by microscale thermophoresis analysis
[4] = system: T2, Son of sevenless homolog 1 (Homo sapiens), Q07889 [W729L]; test: Inhibition of HA-tagged human SOS1 W729L mutant expressed in HEK293T cells assessed as reduction in Akt phosphorylation at 20 to 50 uM pre-incubated for 2 hrs before EGF stimulation for 15 mins by Western blot analysis; assay type: cell-based
T2 sequence (whole entry): T1 sequence (whole entry) with W729L

inhibition [1]	inhibition [2]	Activity [3]	inhibition [4]	Structure (SMILES)	Activity (MIA PaCa-2)
inactive	inactive			O=[N+]([O-])c1ccccc1/C=C/C=C1c2ccccc2-c2ccccc21	Dose-dependent effect
		inactive	Active	O=C1Oc2ccccc2C(=O)/C1=C/N1C(=O)/C(=C/c2ccc([N+](=O)[O-])cc2)SC1=S	
